Measurements as given in US9295253B2, “Use of abscisic acid on ornamental plants” (Valent BioSciences Corporation, priority 2007, dated 2016).

Tests used:
[1] = system: Agapanthus; assay: Drought tolerance and side effects after ABA drench, irrigation withheld; format: in vivo; settings: drenched with 250 ppm ABA, greenhouse, no irrigation
Source text: (§1) Many different commercial ornamental crops were obtained from local retailers, or from wholesale nurseries, and transported to a greenhouse for testing. Plants were watered to saturation and allowed to stand and drain for about one hour. Plants were selected for uniformity based on leaf area and arranged in a randomized complete block design, or a completely randomized design, on the greenhouse bench. The plants were sprayed or drenched with water or treatment solution equaling about 5-10% of the pot volume. The plants were held without irrigation until all the plants wilted to a point when they were determined to be unmarketable. The plants were rated daily for the extent of wilting on a scale from 1 for no wilting to 4 for complete wilting. A rating of 2.5 was the point at which a plant was determined to be unmarketable and the previous day was recorded as the marketable life of that plant in days. The plants were rated for the extent of lower leaf yellowing or leaf or flower abscission on a scale from 1 for no yellowing or abscission to 4 for complete yellowing or abscission. A rating of 2.5 was the point at which a plant was determined to be unmarketable.
(§2) Plants were individually rated on a daily basis for degree of wilting and other undesirable characteristics like leaf yellowing.

[2] = system: Alyssum; assay: as above; format: in vivo; settings: drenched with 250 ppm ABA, greenhouse, no irrigation
Source text: as §1, §2

[3] = system: Calibrachoa; assay: as above; format: in vivo; settings: drenched with 250 ppm ABA, greenhouse, no irrigation
Source text: as §1, §2

[4] = system: Celosia; assay: as above; format: in vivo; settings: drenched with 250 ppm ABA, greenhouse, no irrigation
Source text: as §1, §2

[5] = system: Chrysanthemum; assay: as above; format: in vivo; settings: drenched with 250 ppm ABA, greenhouse, no irrigation
Source text: as §1, §2

[6] = system: Coleus; assay: as above; format: in vivo; settings: drenched with 250 ppm ABA, greenhouse, no irrigation
Source text: as §1, §2

[7] = system: Cosmos; assay: as above; format: in vivo; settings: drenched with 250 ppm ABA, greenhouse, no irrigation
Source text: as §1, §2

[8] = system: Cuphea; assay: as above; format: in vivo; settings: drenched with 250 ppm ABA, greenhouse, no irrigation
Source text: as §1, §2

[9] = system: Dianthus; assay: as above; format: in vivo; settings: drenched with 250 ppm ABA, greenhouse, no irrigation
Source text: as §1, §2

[10] = system: Euryops; assay: as above; format: in vivo; settings: drenched with 250 ppm ABA, greenhouse, no irrigation
Source text: as §1, §2

[11] = system: Gazania; assay: as above; format: in vivo; settings: drenched with 250 ppm ABA, greenhouse, no irrigation
Source text: as §1, §2

[12] = system: Hydrangea; assay: as above; format: in vivo; settings: drenched with 250 ppm ABA, greenhouse, no irrigation
Source text: as §1, §2

[13] = system: Impatiens; assay: as above; format: in vivo; settings: drenched with 250 ppm ABA, greenhouse, no irrigation
Source text: as §1, §2

[14] = system: Lantana; assay: as above; format: in vivo; settings: drenched with 250 ppm ABA, greenhouse, no irrigation
Source text: as §1, §2

[15] = system: Lobelia; assay: as above; format: in vivo; settings: drenched with 250 ppm ABA, greenhouse, no irrigation
Source text: as §1, §2

[16] = system: Marigold; assay: as above; format: in vivo; settings: drenched with 250 ppm ABA, greenhouse, no irrigation
Source text: as §1, §2

[17] = system: New Guinea Impatiens; assay: as above; format: in vivo
Source text: as §1, §2

[18] = system: Pansy; assay: as above; format: in vivo
Source text: as §1, §2

[19] = system: Pentas; assay: as above; format: in vivo; settings: drenched with 250 ppm ABA, greenhouse, no irrigation
Source text: as §1, §2

[20] = system: Petunia; assay: as above; format: in vivo; settings: drenched with 250 ppm ABA, greenhouse, no irrigation
Source text: as §1, §2

[21] = system: Poinsettia; assay: as above; format: in vivo; settings: drenched with 250 ppm ABA, greenhouse, no irrigation
Source text: as §1, §2

[22] = system: Rose; assay: as above; format: in vivo; settings: drenched with 250 ppm ABA, greenhouse, no irrigation
Source text: as §1, §2

[23] = system: Salvia; assay: as above; format: in vivo; settings: drenched with 250 ppm ABA, greenhouse, no irrigation
Source text: as §1, §2

[24] = system: Snapdragon; assay: as above; format: in vivo; settings: drenched with 250 ppm ABA, greenhouse, no irrigation
Source text: as §1, §2

[25] = system: Vinca; assay: as above; format: in vivo
Source text: as §1, §2

[26] = system: potted Poinsettia plants; settings: foliar application; cited from earlier work
[27] = system: excised Coleus leaves; settings: applied through the petiole of excised Coleus leaves, compared to excised leaves standing in water; cited from earlier work
[28] = drenched with 250 ppm ABA, greenhouse, no irrigation

## (S)-5-(1-hydroxy-2,6,6,-trimethyl-4-oxo-2-cyclohexen-1-yl)-3-methyl-(2Z,4E)-pentadienoic acid [ABA]
[1]
  Market life extension (days of additional market life compared to control plants due to delayed wilting): 0 days
[2]
  Market life extension (days of additional market life compared to control plants due to delayed wilting): 0 days
[3]
  Market life extension (days of additional market life compared to control plants due to delayed wilting): 0 days
[4]
  Market life extension (days of additional market life compared to control plants due to delayed wilting): 2.3 days
[5]
  Market life extension (days of additional market life compared to control plants due to delayed wilting): 2.0 days
[6]
  Market life extension (days of additional market life compared to control plants due to delayed wilting): 2.3 days
[7]
  Market life extension (days of additional market life compared to control plants due to delayed wilting): 1.4 days
[8]
  Market life extension (days of additional market life compared to control plants due to delayed wilting): 2.3 days
[9]
  Market life extension (days of additional market life compared to control plants due to delayed wilting): 1.6 days
[10]
  Market life extension (days of additional market life compared to control plants due to delayed wilting): 3.3 days
[11]
  Market life extension (days of additional market life compared to control plants due to delayed wilting): 0 days
[12]
  Market life extension (days of additional market life compared to control plants due to delayed wilting): 3.4 days
[13]
  Market life extension (days of additional market life compared to control plants due to delayed wilting): 2.0 days
[14]
  Market life extension (days of additional market life compared to control plants due to delayed wilting): 2.4 days
[15]
  Market life extension (days of additional market life compared to control plants due to delayed wilting): 2.5 days
[16]
  Market life extension (days of additional market life compared to control plants due to delayed wilting): 1.9 days
[17]; ABA application
  Drought tolerance of treated plants (in words): much greater drought tolerance
[17]; [28]
  Market life extension (days of additional market life compared to control plants due to delayed wilting): 3.3 days
[18]; ABA application
  Drought tolerance of treated plants (in words): more drought tolerant
[18]; [28]
  Market life extension (days of additional market life compared to control plants due to delayed wilting): 1.6 days
[19]
  Market life extension (days of additional market life compared to control plants due to delayed wilting): 2.8 days
[20]
  Market life extension (days of additional market life compared to control plants due to delayed wilting): 3.5 days
[21]
  Market life extension (days of additional market life compared to control plants due to delayed wilting): 2.0 days
[22]
  Market life extension (days of additional market life compared to control plants due to delayed wilting): 0 days
[23]
  Market life extension (days of additional market life compared to control plants due to delayed wilting): 1.9 days
[24]
  Market life extension (days of additional market life compared to control plants due to delayed wilting): 1.5 days
[25]; ABA application
  Drought tolerance of treated plants (in words): more drought tolerant
[25]; [28]
  Market life extension (days of additional market life compared to control plants due to delayed wilting): 2.5 days
[26]
  Transpiration: reduced the transpiration
[27]
  Transpiration rate: reduces their transpiration rate
